Test results: patent publication US6664277B1, “Prenylation inhibitors containing dimethylcyclobutane and methods of their synthesis and use” (PPD Discovery, Inc., priority 2002, dated 2003)

Molecular target: T1, GGPTase I (Rattus norvegicus, UniProt P53610+Q04631)
T1 construct: made in house; host or cells: Sf9 insect cells (baculovirus co-infection)
Test: GGPTase I inhibition assay ([3H]GGPP transfer to Ras-CVLL)
Format: biochemical
Conditions: test compound 100 nM, mixtures of regioisomers and/or enantiomers unless indicated
Description: GGPTase-I activity was determined by the method of Casey et al, Proc. Natl. Acad. Sci. USA, 1991, 88, 8631-8635. This method measures the transfer of isoprenoid from ^3H-geranylgeranyl diphosphate (GGPP) into a Ras protein with a C-terminal leucine-for-serine substitution (designated as Ras-CVLL).
Assays for the inhibition studies of GGPTase I were performed in a manner analogous to that described by Casey, et al., Proc. Natl. Acad. Sci. USA, 1991, 88, 8631-8635, with the following modifications. For those assays, the reaction mixtures contained the following components in 50 μl:0.25 μM [^3H]GGPP (sp. act. 8-10 Ci/mmol), 2.5 μM Ras-CVLL, 50 mM Tris-Cl, pH 7.7, 20 mM KCl, 5 mM MgCl2, 5 μM ZnCl2, 1 mM DTT, 0.5 mM Zwittergent 3-14 and the desired amount of the compound to be tested for inhibitory potential. After pre-equilibrating the assay mixture at 30° C. in the absence of the enzyme, the reaction was initiated by addition of the enzyme (75 ng). Following an about 10 minute incubation at about 30° C., the reactions were terminated by addition of about 0.5 ml of about 4% SDS. About 40 mg of bovine brain membranes was added to the samples to enhance recovery during precipitation. Product was precipitated by addition of about 0.5 ml of 30% TCA, allowed to stand at room temperature for about 15 minutes, and processed by filtration through glass-fiber filters as described previously (Reiss et al., Methods: Companion to Methods in Enzymology, 1991, 1, 241-245). Reactions were never allowed to proceed to more than 10% completion based on the limiting substrate. Assays for the inhibition studies of FPTase were performed analogous the GGPTase I inhibition studies, except [^3H]GGPP was replaced with 0.25 μM of [^3H]FPP (sp. act. 8-10 ci/mmol) and Ras-CVLL was replaced with 1 μM H-Ras.
Using the method described above, the GGPTase I inhibitory activities of some of the compounds of the present invention were evaluated. The concentration of the test compound used was 100 nM. Mixtures of regioisomers and/or enantiomers are used unless indicated otherwise (for example, the position of substituents on the dimethyl cyclobutane moiety).

T1 sequence (P53610 whole entry, one chain of several): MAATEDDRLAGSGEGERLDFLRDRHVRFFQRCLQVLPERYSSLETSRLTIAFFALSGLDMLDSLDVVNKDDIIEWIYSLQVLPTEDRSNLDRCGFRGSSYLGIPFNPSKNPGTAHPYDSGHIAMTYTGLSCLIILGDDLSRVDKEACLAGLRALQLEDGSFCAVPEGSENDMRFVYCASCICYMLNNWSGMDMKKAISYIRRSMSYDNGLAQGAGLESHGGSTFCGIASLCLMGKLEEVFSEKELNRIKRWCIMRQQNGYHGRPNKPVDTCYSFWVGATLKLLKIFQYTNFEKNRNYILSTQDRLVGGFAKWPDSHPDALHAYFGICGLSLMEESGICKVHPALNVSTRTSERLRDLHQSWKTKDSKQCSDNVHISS

CN1CC[C@H](c2ccccc2)[C@H]1C(N)=O
Inhibition (Table I): Yes

CN1Cc2ccccc2C[C@H]1C(N)=O
Inhibition (Table I): Yes

CC1(C)[C@@H](CNC(=O)[C@@H](N)Cc2ccccc2)C[C@H]1c1cc(-c2cccnc2)nn1-c1ccc(Cl)c(Cl)c1
Inhibition (Table VI): yes

CN(C(=O)C[C@H]1C[C@H](c2cc(-c3cccnc3)nn2-c2ccc(Cl)c(Cl)c2)C1(C)C)C(Cc1ccccc1)C(N)=O (stereo partly shown)
Inhibition (Table VI): yes

CC1(C)[C@@H](CCNC(Cc2ccccc2)C(N)=O)C[C@H]1c1cc(-c2cccnc2)nn1-c1ccc(Cl)c(Cl)c1 (stereo partly shown)
Inhibition (Table VI): no

CC1(C)[C@@H](CC(=O)NC(Cc2ccccc2)C(N)=O)C[C@@H]1c1cc(-c2cccnc2)nn1-c1ccc(Cl)c(Cl)c1 (stereo partly shown) [Bn]
Inhibition (Table V): yes

CC1(C)[C@@H](CC(=O)NC(CO)Cc2ccccc2)C[C@@H]1c1cc(-c2cccnc2)nn1-c1ccc(Cl)c(Cl)c1 (stereo partly shown) [CH2OH]
Inhibition (Table II): yes
Inhibition (Table V): yes

CC1(C)[C@@H](CC(=O)NC(Cc2ccccc2)C(=O)OCc2ccccc2)C[C@@H]1c1cc(-c2cccnc2)nn1-c1ccc(Cl)c(Cl)c1 (stereo partly shown) [CO2Bn]
Inhibition (Table II): yes

CC1(C)[C@@H](CC(=O)NC(Cc2ccccc2)C(=O)O)C[C@@H]1c1cc(-c2cccnc2)nn1-c1ccc(Cl)c(Cl)c1 (stereo partly shown) [CO2H]
Inhibition (Table II): yes

COC(=O)C(Cc1ccccc1)NC(=O)C[C@H]1C[C@H](c2cc(-c3cccnc3)nn2-c2ccc(Cl)c(Cl)c2)C1(C)C (stereo partly shown) [CO2Me]
Inhibition (Table II): yes

CC1(C)[C@@H](CC(=O)NC(Cc2ccccc2)C(N)=O)C[C@@H]1c1cc(-c2cccnc2)nn1-c1ccc(Cl)c(Cl)c1 (stereo partly shown) [CONH2]
Inhibition (Table II): yes

CNC(=O)C(Cc1ccccc1)NC(=O)C[C@H]1C[C@H](c2cc(-c3cccnc3)nn2-c2ccc(Cl)c(Cl)c2)C1(C)C (stereo partly shown) [CONHMe]
Inhibition (Table II): yes

CC1(C)[C@@H](CC(=O)NCCc2ccccc2)C[C@@H]1c1cc(-c2cccnc2)nn1-c1ccc(Cl)c(Cl)c1 [H]
Inhibition (Table II): yes
Inhibition (Table V): yes

CC1(C)[C@@H](CC(=O)NC(C(N)=O)c2ccccc2)C[C@@H]1c1cc(-c2cccnc2)nn1-c1ccc(Cl)c(Cl)c1 (stereo partly shown) [Ph]
Inhibition (Table V): yes
